Experimental data published in the supplement of paper PMC10307832.

What was measured:
[1] = compound: CC1=CC(=CC=C1)NC2=NC(=CS2)C3=CC=NC=C3 + NC(=O)Nc1cc(-c2cccc(F)c2)sc1C(=O)N[C@H]1CCCNC1 [AZD7762] (partner 0.2 µM); assay: relative viability (nuclei count vs DMSO), 5 days (fraction); higher = more cells survive
Procedure, shortened: (§1)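 Lung cancer cell lines in 1536-well plates got either a single drug or a fixed anchor-drug dose together with five library-drug doses (not always all listed) in √10 steps, by pin tool, on the day after seeding. Nuclei were counted after 5 days, and relative viability is the treated-to-vehicle ratio of nuclei counts. Values are medians of duplicate plates.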

[2] = compound: CC1=CC(=CC=C1)NC2=NC(=CS2)C3=CC=NC=C3 + CC(=O)Nc1cccc(-n2c(=O)n(C3CC3)c(=O)c3c(Nc4ccc(I)cc4F)n(C)c(=O)c(C)c32)c1 [Trametinib] (partner 0.02 µM); assay: as above
Procedure, shortened: as §1

Row | Cell Line | relative viability ([1]; first compound 0.08 µM) | relative viability ([1]; first compound 0.253 µM) | relative viability ([1]; first compound 0.8 µM) | relative viability ([1]; first compound 2.53 µM) | relative viability ([1]; first compound 8 µM) | relative viability ([2]; first compound 0.08 µM) | relative viability ([2]; first compound 0.253 µM) | relative viability ([2]; first compound 0.8 µM) | relative viability ([2]; first compound 2.53 µM) | relative viability ([2]; first compound 8 µM)
1 | HOP-62 | 0.629 | 0.598 | 0.619 | 0.861 | 0.578 | 0.371 | 0.324 | 0.345 | 0.328 | 0.266
2 | LC-2-ad | 0.823 | 0.845 | 0.911 | 0.835 | 0.821 | 0.862 | 0.881 | 0.826 | 0.839 | 0.8
3 | LCLC-97TM1 | 0.338 | 0.292 | 0.379 | 0.246 | 0.376 | 0.185 | 0.214 | 0.157 | 0.178 | 0.185
4 | LCLC-103H | 0.73 | 0.755 | 0.725 | 0.74 | 0.651 | 0.629 | 0.593 | 0.586 | 0.579 | 0.658
5 | LK-2 |  | 0.429 | 0.555 | 0.36 | 0.618 | 0.817 | 0.806 | 0.951 | 0.772 | 1.33
6 | LOU-NH91 | 0.615 | 0.631 | 0.714 | 0.761 | 0.468 | 0.704 | 0.734 | 0.721 | 0.754 | 0.728
7 | LU99A | 0.36 | 0.326 | 0.361 | 0.374 | 0.442 | 0.521 | 0.575 | 0.509 | 0.525 | 0.477
8 | LXF-289 | 1.04 | 1.12 | 1.04 | 1.2 | 0.964 | 0.639 | 0.674 | 0.648 | 0.739 | 0.606
9 | NCI-H23 | 0.283 | 0.276 | 0.213 | 0.244 | 0.223 | 0.371 | 0.199 | 0.424 | 0.388 | 0.419
10 | NCI-H322M | 0.46 | 0.549 | 0.551 | 0.553 | 0.455 | 0.482 | 0.534 | 0.509 | 0.552 | 0.52
11 | NCI-H358 |  | 0.594 | 0.532 | 0.521 | 0.542 | 0.121 | 0.141 | 0.133 | 0.142 | 0.136
12 | NCI-H441 | 1.1 | 1.01 | 1.1 | 1.35 | 0.997 | 0.363 | 0.418 | 0.623 | 0.348 | 0.349
13 | NCI-H460 | 0.555 | 0.529 | 0.625 | 0.622 | 0.497 | 0.0961 | 0.0855 | 0.0743 | 0.0913 | 0.111
14 | NCI-H520 |  |  |  |  |  | 0.592 | 0.671 | 0.757 | 0.707 | 0.716
15 | NCI-H522 | 0.681 | 0.822 | 0.803 | 0.848 | 0.852 | 0.79 | 0.66 | 0.832 | 0.789 | 0.878
16 | NCI-H596 | 0.913 | 0.98 | 0.959 | 1.15 | 0.86 | 0.731 | 0.761 | 0.575 | 0.642 | 0.586
17 | NCI-H647 | 0.379 | 0.372 | 0.558 | 0.382 | 0.414 | 0.408 | 0.379 | 0.387 | 0.424 | 0.279
